Data on 27 compounds can be found in patent publication US11673901B2, “Polycyclic compounds as allosteric SHP2 inhibitors” (Revolution Medicines, Inc., priority 2017, dated 2023).

The target of the assay is SHP2 (Homo sapiens (Human), UniProt Q06124). The assay can be described thus: SHP2 allosteric inhibition assay (DiFMUP prompt fluorescence). The note with it: 0.2 nM SHP2 activated with 0.5 μM Activating Peptide 1 or 2; substrate DiFMUP; Table 2, class symbols. Format: biochemical. An excerpt: Without wishing to be bound by theory, SHP2 is allosterically activated through binding of bis-tyrosyl-phosphorylated peptides to its Src Homology 2 (SH2) domains. The latter activation step leads to the release of the auto-inhibitory interface of SHP2, which in turn renders the SHP2 protein tyrosine phosphatase (PTP) active and available for substrate recognition and reaction catalysis. The catalytic activity of SHP2 was monitored using the surrogate substrate DiFMUP in a prompt fluorescence assay format.
Sequence of SHP2 (Q06124 whole entry): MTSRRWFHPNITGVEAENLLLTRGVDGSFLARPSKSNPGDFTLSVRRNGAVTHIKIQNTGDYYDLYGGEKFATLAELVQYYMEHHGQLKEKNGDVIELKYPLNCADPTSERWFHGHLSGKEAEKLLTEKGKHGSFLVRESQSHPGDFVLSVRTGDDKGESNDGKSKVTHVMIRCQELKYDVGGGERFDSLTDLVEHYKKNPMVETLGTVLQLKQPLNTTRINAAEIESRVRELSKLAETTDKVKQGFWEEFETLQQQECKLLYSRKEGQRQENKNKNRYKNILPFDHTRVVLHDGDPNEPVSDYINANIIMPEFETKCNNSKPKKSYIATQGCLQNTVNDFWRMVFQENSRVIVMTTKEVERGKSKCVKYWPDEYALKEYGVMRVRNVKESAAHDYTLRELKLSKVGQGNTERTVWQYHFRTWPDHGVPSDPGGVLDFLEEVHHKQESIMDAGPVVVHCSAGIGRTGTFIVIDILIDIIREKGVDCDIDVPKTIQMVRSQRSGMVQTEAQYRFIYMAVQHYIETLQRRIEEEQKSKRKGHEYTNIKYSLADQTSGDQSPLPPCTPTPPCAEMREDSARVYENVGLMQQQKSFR
The phosphatase reactions were performed at room temperature in 96-well black polystyrene plate, flat bottom, non-binding surface (Corning, Cat #3650) using a final reaction volume of 100 μL and the following assay buffer conditions: 50 mM HEPES, pH 7.2, 100 mM NaCl, 0.5 mM EDTA, 0.05% P-20, 1 mM DTT.
The inhibition of SHP2 by compounds of the invention (concentrations varying from 0.00005-10 μM) was monitored using an assay in which 0.2 nM of SHP2 was incubated with 0.5 μM of Activating Peptide 1 (sequence: H2N-LN(pY)IDLDLV(dPEG8)LST(pY)ASINFQK-amide) or Activating Peptide 2 (sequence: H2N-LN(pY)AQLWHA(dPEG8)LTI(pY)ATIRRF-amide). After 30-60-minutes incubation at 25° C., the surrogate substrate DiFMUP (Invitrogen, Cat #D6567) was added to the reaction and activity was determined by a kinetic read using a microplate reader (Envision, Perkin-Elmer or Spectramax M5, Molecular Devices). The excitation and emission wavelengths were 340 nm and 450 nm, respectively. Initial rates were determined from a linear fit of the data, and the inhibitor dose response curves were analyzed using normalized IC50 regression curve fitting with control based normalization.

The structures appear in SMILES notation. pIC50: −log10 of the molar value.

For `Nc1nccc(Sc2cnc(N3CCNCC3)n3ccnc23)c1Cl` [Compound 27, 3-chloro-4-{[5-(piperazin-1-yl)imidazo[1,2-c]pyrimidin-8-yl]sulfanyl}pyridin-2-amine], the pIC50 (usually the IC50 on a negative log10 scale, so that one unit is a factor of ten) was < 6.30.
As for `Nc1nccc(Sc2cnc(N3CC[C@@H](N)C3)n3ccnc23)c1Cl` [Compound 28, 4-({5-[(3R)-3-aminopyrrolidin-1-yl]imidazo[1,2-c]pyrimidin-8-yl}sulfanyl)-3-chloropyridin-2-amine], the figure is < 6.30.
As for `Cc1nc(N2CCC3(CC2)CO[C@@H](C)[C@H]3N)n2ccnc2c1Sc1ccnc(N)c1Cl` [Compound 29, (3S,4S)-8-{8-[(2-amino-3-chloropyridin-4-yl)sulfanyl]-7-methylimidazo[1,2-c]pyrimidin-5-yl}-3-methyl-2-oxa-8-azaspiro[4.5]decan-4-amine], the figure is ≥ 7.30; as for `Cc1nc(N2CCC3(CC2)CO[C@@H](C)[C@H]3N)n2ccnc2c1-c1ccc2cn[nH]c2c1` [Compound 30, (3S,4S)-8-[8-(2H-indazol-6-yl)-7-methylimidazo[1,2-c]pyrimidin-5-yl]-3-methyl-2-oxa-8-azaspiro[4.5]decan-4-amine], ≥ 7.30.
Regarding `COc1ccc(-c2c(C)nc(N3CCC4(CC3)CO[C@@H](C)[C@H]4N)n3ccnc23)c(Cl)c1C#N` [Compound 31, 3-{5-[(3S,4S)-4-amino-3-methyl-2-oxa-8-azaspiro[4.5]decan-8-yl]-7-methylimidazo[1,2-c]pyrimidin-8-yl}-2-chloro-6-methoxybenzonitrile], the pIC50 is ≥ 7.30.
As for `Cc1nc(N2CCC3(CC2)CO[C@@H](C)[C@H]3N)n2ccnc2c1-c1cccc2nc[nH]c12` [Compound 32, (3S,4S)-8-[8-(1H-1,3-benzodiazol-4-yl)-7-methylimidazo[1,2-c]pyrimidin-5-yl]-3-methyl-2-oxa-8-azaspiro[4.5]decan-4-amine], the figure is ≥ 7.30.
The value for `Cc1nc(N2CCC3(CC2)CO[C@@H](C)[C@H]3N)n2ccnc2c1-c1ccc2[nH]cnc2c1` [Compound 33, (3S,4S)-8-[8-(1H-1,3-benzodiazol-6-yl)-7-methylimidazo[1,2-c]pyrimidin-5-yl]-3-methyl-2-oxa-8-azaspiro[4.5]decan-4-amine] was ≥ 7.30.
The value for `Cc1nc(N2CCC3(CC2)CO[C@@H](C)[C@H]3N)n2ccnc2c1-c1ccc2c(cnn2C)c1` [Compound 34, (3S,4S)-3-methyl-8-[7-methyl-8-(1-methyl-1H-indazol-5-yl)imidazo[1,2-c]pyrimidin-5-yl]-2-oxa-8-azaspiro[4.5]decan-4-amine] was ≥ 7.30; that for `Cc1nc(N2CCC3(CC2)CO[C@@H](C)[C@H]3N)n2ccnc2c1-c1cccc2cc[nH]c12` [Compound 35, (3S,4S)-8-[8-(1H-indol-7-yl)-7-methylimidazo[1,2-c]pyrimidin-5-yl]-3-methyl-2-oxa-8-azaspiro[4.5]decan-4-amine] was ≥ 7.30.
Turning to `Cc1nc(N2CCC3(CC2)CO[C@@H](C)[C@H]3N)n2ccnc2c1-c1cccc2cn[nH]c12` [Compound 36, (3S,4S)-8-[8-(2H-indazol-7-yl)-7-methylimidazo[1,2-c]pyrimidin-5-yl]-3-methyl-2-oxa-8-azaspiro[4.5]decan-4-amine], the pIC50 is ≥ 7.30.
The value for `Cc1nc(N2CCC3(CC2)CO[C@@H](C)[C@H]3N)n2ccnc2c1-c1cc(Cl)c2cn[nH]c2c1` [Compound 37, (3S,4S)-8-[8-(4-chloro-2H-indazol-6-yl)-7-methylimidazo[1,2-c]pyrimidin-5-yl]-3-methyl-2-oxa-8-azaspiro[4.5]decan-4-amine] was ≥ 7.30.
As for `Cc1nc(N2CCC3(CC2)CO[C@@H](C)[C@H]3N)n2ccnc2c1-c1cc2[nH]ncc2cc1Cl` [Compound 38, (3S,4S)-8-[8-(5-chloro-2H-indazol-6-yl)-7-methylimidazo[1,2-c]pyrimidin-5-yl]-3-methyl-2-oxa-8-azaspiro[4.5]decan-4-amine], the figure is ≥ 7.30; as for `Cc1nc(N2CCC3(CC2)CO[C@@H](C)[C@H]3N)n2ccnc2c1-c1ccc2[nH]ncc2c1` [Compound 39, (3S,4S)-8-[8-(2H-indazol-5-yl)-7-methylimidazo[1,2-c]pyrimidin-5-yl]-3-methyl-2-oxa-8-azaspiro[4.5]decan-4-amine], ≥ 7.30.
As for `Cc1nc(N2CCC3(CC2)CO[C@@H](C)[C@H]3N)n2ccnc2c1-c1cc2ccccc2n1C` [Compound 40, (3S,4S)-3-methyl-8-[7-methyl-8-(1-methyl-1H-indol-2-yl)imidazo[1,2-c]pyrimidin-5-yl]-2-oxa-8-azaspiro[4.5]decan-4-amine], the figure is ≥ 7.30; as for `Cc1nc(N2CCC3(CC2)CO[C@@H](C)[C@H]3N)n2ccnc2c1-c1ccc2nccnc2c1Cl` [Compound 41, (3S,4S)-8-[8-(5-chloroquinoxalin-6-yl)-7-methylimidazo[1,2-c]pyrimidin-5-yl]-3-methyl-2-oxa-8-azaspiro[4.5]decan-4-amine], ≥ 7.30.
Take `Cc1nc(N2CCC3(CC2)CO[C@@H](C)[C@H]3N)n2ccnc2c1-c1ccc2c(c1Cl)OCCC2` [Compound 43, (3S,4S)-8-[8-(8-chloro-3,4-dihydro-2H-1-benzopyran-7-yl)-7-methylimidazo[1,2-c]pyrimidin-5-yl]-3-methyl-2-oxa-8-azaspiro[4.5]decan-4-amine]: the pIC50 is ≥ 7.30.
The value for `Cc1nc(N2CCC3(CC2)CO[C@@H](C)[C@H]3N)n2ccnc2c1-c1ccc2c(c1Cl)OCC2` [Compound 44, (3S,4S)-8-[8-(7-chloro-2,3-dihydro-1-benzofuran-6-yl)-7-methylimidazo[1,2-c]pyrimidin-5-yl]-3-methyl-2-oxa-8-azaspiro[4.5]decan-4-amine] was ≥ 7.30.
Regarding `Cc1nc(N2CCC3(CC2)CO[C@@H](C)[C@H]3N)n2ccnc2c1-c1cccc(C#N)c1Cl` [Compound 45, 3-{5-[(3S,4S)-4-amino-3-methyl-2-oxa-8-azaspiro[4.5]decan-8-yl]-7-methylimidazo[1,2-c]pyrimidin-8-yl}-2-chlorobenzonitrile], the pIC50 is ≥ 7.30.
As for `COc1c(C#N)ccc(-c2c(C)nc(N3CCC4(CC3)CO[C@@H](C)[C@H]4N)n3ccnc23)c1Cl` [Compound 46, 4-{5-[(3S,4S)-4-amino-3-methyl-2-oxa-8-azaspiro[4.5]decan-8-yl]-7-methylimidazo[1,2-c]pyrimidin-8-yl}-3-chloro-2-methoxybenzonitrile], the figure is ≥ 7.30; as for `COc1nccc(-c2c(C)nc(N3CCC4(CC3)CO[C@@H](C)[C@H]4N)n3ccnc23)c1Cl` [Compound 47, (3S,4S)-8-[8-(3-chloro-2-methoxypyridin-4-yl)-7-methylimidazo[1,2-c]pyrimidin-5-yl]-3-methyl-2-oxa-8-azaspiro[4.5]decan-4-amine], ≥ 7.30.
For the compound `Cc1nc(N2CCC3(CC2)CO[C@@H](C)[C@H]3N)n2ccnc2c1-c1ccc2ccnn2c1` [Compound 48, (3S,4S)-3-methyl-8-(7-methyl-8-pyrazolo[1,5-a]pyridin-6-yl-imidazo[1,2-c]pyrimidin-5-yl)-2-oxa-8-azaspiro[4.5]decan-4-amine], the pIC50 was ≥ 7.30.
In the case of `COc1cc(Cl)c(Cl)c(-c2c(C)nc(N3CCC4(CC3)CO[C@@H](C)[C@H]4N)n3ccnc23)c1` [Compound 49, (3S,4S)-8-[8-(2,3-dichloro-5-methoxyphenyl)-7-methylimidazo[1,2-c]pyrimidin-5-yl]-3-methyl-2-oxa-8-azaspiro[4.5]decan-4-amine], the pIC50 is ≥ 7.30.
The value for `Cc1nc(N2CCC3(CC2)CO[C@@H](C)[C@H]3N)n2ccnc2c1-c1cccc2c(Cl)c[nH]c12` [Compound 50, (3S,4S)-8-[8-(3-chloro-1H-indol-7-yl)-7-methylimidazo[1,2-c]pyrimidin-5-yl]-3-methyl-2-oxa-8-azaspiro[4.5]decan-4-amine] was ≥ 7.30; that for `Cc1nc(N2CCC3(CC2)CO[C@@H](C)[C@H]3N)n2ccnc2c1-c1ccn2ccnc2c1` [Compound 51, (3S,4S)-8-(8-imidazo[1,2-a]pyridin-7-yl-7-methyl-imidazo[1,2-c]pyrimidin-5-yl)-3-methyl-2-oxa-8-azaspiro[4.5]decan-4-amine] was 6.30 to 7.30.
In the case of `Cc1nc(N2CCC3(CC2)CO[C@@H](C)[C@H]3N)n2ccnc2c1-c1cc(Cl)cc2cc[nH]c12` [Compound 52, (3S,4S)-8-[8-(5-chloro-1H-indol-7-yl)-7-methylimidazo[1,2-c]pyrimidin-5-yl]-3-methyl-2-oxa-8-azaspiro[4.5]decan-4-amine], the pIC50 was ≥ 7.30.
The value for `Cc1nc(N2CCC3(CC2)CO[C@@H](C)[C@H]3N)n2ccnc2c1-c1ccnc2cc[nH]c12` [Compound 53, (3S,4S)-3-methyl-8-(7-methyl-8-{1H-pyrrolo[3,2-b]pyridin-7-yl}imidazo[1,2-c]pyrimidin-5-yl)-2-oxa-8-azaspiro[4.5]decan-4-amine] was ≥ 7.30; that for `Cc1nc(N2CCC3(CC2)CO[C@@H](C)[C@H]3N)n2ccnc2c1-c1ccc(O)c(Cl)c1Cl` [Compound 54, 4-{5-[(3S,4S)-4-amino-3-methyl-2-oxa-8-azaspiro[4.5]decan-8-yl]-7-methylimidazo[1,2-c]pyrimidin-8-yl}-2,3-dichlorophenol] was ≥ 7.30.
